Data: patent publication US20210186838A1, “ACTIVE SUBSTANCE COMBINATIONS OF N-(4-AMINO-2-METHYLQUINOLIN-6-YL)-2-((4-ETHYLPHENOXY)METHYL)BENZAMIDE AND ONE OR MORE COSMETICALLY OR DERMATOLOGICALLY ACCEPTABLE PRESERVATIVES AND/OR PRESERVATIVE AUXILIARIES” (BEIERSDORF AG, priority 2017, published 2021)

Key:
dermal fibroblasts = assay: viability assay (BrdU incorporation, cell division rate); format: cell-based; details: 24 h; for Assay in which the combination showed better activity than the corresponding active substance alone: BrdU: active substance combined with 10 ng/ml N-(4-amino-2-methylquinolin-6-yl)-2-((4-ethylphenoxy)methyl)benzamide, assay named in cell = better activity
Description: The cells take up this synthetic nucleic acid, which is detectable by fluorescence detection, and incorporate it into newly synthesized genetic material during cell division. […] This allows conclusions to be drawn about the effect of the individual active substances on cell viability.

subcutaneous adipocytes = assay: lipid assay (AdipoRed staining of total lipid); format: cell-based; details: for Assay in which the combination showed better activity than the corresponding active substance alone: Lipid: active substance combined with 10 ng/ml N-(4-amino-2-methylquinolin-6-yl)-2-((4-ethylphenoxy)methyl)benzamide, adipocytes, one week, AdipoRed, assay named in cell = better activity
Protocol: The lipid assay is performed on subcutaneous adipocytes. Cell culture dishes are inoculated with preadipocytes, which undergo differentiation into adipocytes. This is followed by treatment with the active substance for one week, during which the cells synthesize lipids and store them in vesicles. The total amount of lipid as a function of active substance effects is determined at the end of the culture period. This is done by staining the cell monolayer with the lipophilic fluorescent dye AdipoRed, followed by quantification by fluorescence spectroscopy.

human adipocytes = assay: LDH (lactate dehydrogenase) cytotoxicity assay; details: for Assay in which the combination showed better activity than the corresponding active substance alone: LDH: active substance combined with 10 ng/ml N-(4-amino-2-methylquinolin-6-yl)-2-((4-ethylphenoxy)methyl)benzamide, LDH in medium supernatant, assay named in cell = better activity (less LDH escape)
Protocol: The third assay performed is the LDH (lactate dehydrogenase) cytotoxicity assay. In this assay, the metabolic enzyme LDH is detected in the medium supernatant of the cell monolayer by adding a substrate for the enzyme to the cell culture supernatant. Reaction of the latter produces a color change, which is determined photometrically. The magnitude of the color change correlates here with the amount of LDH in the cell culture supernatant.
For all assays, the active substances were present as 1000× stocks dissolved to 10 mM in DMSO and were diluted 1:1000 in the appropriate cell culture medium for use.

Row | Compound | Assay in which the combination showed better activity than the corresponding active substance alone: BrdU (dermal fibroblasts) | Assay in which the combination showed better activity than the corresponding active substance alone: Lipid (subcutaneous adipocytes) | other results
1 | Cn1sccc1=O [Methylisothiazolinone/Konlon 950, Methylisothiazolinone] | BrdU | Lipid | 
2 | CC(CO)CO [Methylpropanediol/Lolo, Methylpropanediol] |  | Lipid | 
3 | CCCCCCCC(=O)OCC(O)CO (stereo not drawn) [Glyceryl caprylate/emulsifier CY, Glyceryl caprylate] | BrdU |  | 
4 | CCOC(=O)c1ccc(O)cc1 [Ethylparaben/Konpar A, Ethylparaben] | BrdU |  | Assay in which the combination showed better activity than the corresponding active substance alone: LDH (human adipocytes): LDH
5 | CCCCCCC(O)CO (stereo not drawn) [octane-1,2-diol] | BrdU |  | Assay in which the combination showed better activity than the corresponding active substance alone: LDH (human adipocytes): LDH
6 | CC1(C)C(=O)N(CO)C(=O)N1CO [Kondant/DMDM hydantoin, DMDM hydantoin] | BrdU | Lipid | 
7 | O=C([O-])c1ccccc1.[Na+] [Sodium benzoate] |  | Lipid | Assay in which the combination showed better activity than the corresponding active substance alone: LDH (human adipocytes): LDH
8 | CCc1ccc(OCc2ccccc2C(=O)Nc2ccc3nc(C)cc(N)c3c2)cc1 [N-(4-Amino-2-methylquinolin-6-yl)-2-((4-ethylphenoxy)methyl)benzamide] |  |  | rate of incorporation of BrdU (dermal fibroblasts; in combination with a preservative versus the corresponding preservative alone, FIG. 1): increase; rate of escape of LDH (human adipocytes; in combination with a preservative versus the corresponding preservative alone, human adipocytes, FIG. 3): decrease; accumulation of AdipoRed (differentiation performance of the adipocytes) (subcutaneous adipocytes; in combination with a preservative versus the corresponding preservative alone, one week treatment, FIG. 2): increase
9 | OCc1ccccc1 [Benzyl alcohol] |  | Lipid | 
10 | CCCCC(O)CO (stereo not drawn) [1,2-Hexanediol/Hydiol 6, 1,2-Hexanediol] |  | Lipid | Assay in which the combination showed better activity than the corresponding active substance alone: LDH (human adipocytes): LDH
11 | Phenoxyethanol [Phenoxyethanol/Phenoxetol] |  | Lipid | 
12 | O=C([O-])c1ccccc1O.[Na+] [Sodium salicylate] |  | Lipid | 
13 | Cc1cc(CC(C)CC(C)(C)C)n(O)c(=O)c1.NCCO (stereo not drawn) [Piroctone olamine/Octupus, Piroctone olamine] | BrdU | Lipid | 
14 | OCCCCO [Butylene glycol/Natan, Butylene glycol] | BrdU | Lipid | 
